According to patent US20250223303A1, “TRICYCLIC BORONIC ACID DERIVATIVE, AND PREPARATION METHOD THEREFOR AND APPLICATION THEREOF” (priority 2021, published 2025):

Experiments:
[1] = tested on: Escherichia coli ARLG 2829; assay: MIC test of compounds in combination with antibiotics, Escherichia coli ARLG 2829; details: for MIC of biapenem in combination with compound, Escherichia coli ARLG-2829 NDM-5, OXA-1: Biapenem + compound (8 μg/mL); for MIC of meropenem in combination with compound, Escherichia coli ARLG-2829 NDM-5, OXA-1: Meropenem + compound (8 μg/mL)
[2] = tested on: Klebsiella pneumoniae ARLG 1196; assay: MIC test of compounds in combination with antibiotics, Klebsiella pneumoniae ARLG 1196; details: for MIC of biapenem in combination with compound, Klebsiella pneumoniae ARLG-1196 CTM-1 group, SHV, NDM, TEM: Biapenem + compound (8 μg/mL); for MIC of meropenem in combination with compound, Klebsiella pneumoniae ARLG-1196 CTM-1 group, SHV, NDM, TEM: Meropenem + compound (8 μg/mL)
[3] = tested on: Klebsiella pneumoniae ATCC BAA-2470; assay: MIC test of compounds in combination with antibiotics, Klebsiella pneumoniae ATCC BAA-2470; details: for MIC of biapenem in combination with compound, Klebsiella pneumoniae ATCC BAA-2470 NDM-1: Biapenem + compound (8 μg/mL); for MIC of meropenem in combination with compound, Klebsiella pneumoniae ATCC BAA-2470 NDM-1: Meropenem + compound (8 μg/mL)
[4] = tested on: Klebsiella pneumoniae ATCC BAA-1705; assay: MIC test of compounds in combination with antibiotics, Klebsiella pneumoniae ATCC BAA-1705; details: for MIC of biapenem in combination with compound, Klebsiella pneumoniae ATCC BAA-1705 KPC-2: Biapenem + compound (8 μg/mL); for MIC of meropenem in combination with compound, Klebsiella pneumoniae ATCC BAA-1705 KPC-2: Meropenem + compound (8 μg/mL)
[5] = tested on: Acinetobacter baumannii WX-AB005; assay: MIC test of compounds in combination with antibiotics, Acinetobacter baumannii WX-AB005; details: for MIC of biapenem in combination with compound, Acinetobacter baumannii WX-AB005: Biapenem + compound (8 μg/mL); for MIC of meropenem in combination with compound, Acinetobacter baumannii WX-AB005: Meropenem + compound (8 μg/mL)
[6] = tested on: Acinetobacter baumannii WX-AB013; assay: MIC test of compounds in combination with antibiotics, Acinetobacter baumannii WX-AB013; details: for MIC of biapenem in combination with compound, Acinetobacter baumannii WX-AB013: Biapenem + compound (8 μg/mL); for MIC of meropenem in combination with compound, Acinetobacter baumannii WX-AB013: Meropenem + compound (8 μg/mL)
[7] = tested on: Acinetobacter baumannii ARLG-1791 OXA-23; assay: MIC test of compounds in combination with antibiotics, Acinetobacter baumannii ARLG-1791; details: for MIC of biapenem in combination with compound, Acinetobacter baumannii ARLG-1791 OXA-23: Biapenem + compound (8 μg/mL); for MIC of meropenem in combination with compound, Acinetobacter baumannii ARLG-1791 OXA-23: Meropenem + compound (8 μg/mL)
[8] = tested on: Acinetobacter baumannii ARLG-1809 OXA-23; assay: MIC test of compounds in combination with antibiotics, Acinetobacter baumannii ARLG-1809; details: for MIC of biapenem in combination with compound, Acinetobacter baumannii ARLG-1809 OXA-23: Biapenem + compound (8 μg/mL); for MIC of meropenem in combination with compound, Acinetobacter baumannii ARLG-1809 OXA-23: Meropenem + compound (8 μg/mL)
[9] = tested on: Acinetobacter baumannii ARLG-1852 OXA-23; assay: MIC test of compounds in combination with antibiotics, Acinetobacter baumannii ARLG-1852; details: for MIC of biapenem in combination with compound, Acinetobacter baumannii ARLG-1852 OXA-23: Biapenem + compound (8 μg/mL); for MIC of meropenem in combination with compound, Acinetobacter baumannii ARLG-1852 OXA-23: Meropenem + compound (8 μg/mL)
[10] = tested on: Acinetobacter baumannii ARLG-1853 OXA-23; assay: MIC test of compounds in combination with antibiotics, Acinetobacter baumannii ARLG-1853; details: for MIC of biapenem in combination with compound, Acinetobacter baumannii ARLG-1853 OXA-23: Biapenem + compound (8 μg/mL); for MIC of meropenem in combination with compound, Acinetobacter baumannii ARLG-1853 OXA-23: Meropenem + compound (8 μg/mL)

SMILES	MIC of biapenem in combination with compound, Escherichia coli ARLG-2829 NDM-5, OXA-1 [1] [µg/mL]	MIC of meropenem in combination with compound, Escherichia coli ARLG-2829 NDM-5, OXA-1 [1] [µg/mL]	MIC of biapenem in combination with compound, Klebsiella pneumoniae ARLG-1196 CTM-1 group, SHV, NDM, TEM [2] [µg/mL]	MIC of meropenem in combination with compound, Klebsiella pneumoniae ARLG-1196 CTM-1 group, SHV, NDM, TEM [2] [µg/mL]	MIC of biapenem in combination with compound, Klebsiella pneumoniae ATCC BAA-2470 NDM-1 [3] [µg/mL]	MIC of meropenem in combination with compound, Klebsiella pneumoniae ATCC BAA-2470 NDM-1 [3] [µg/mL]	MIC of biapenem in combination with compound, Klebsiella pneumoniae ATCC BAA-1705 KPC-2 [4] [µg/mL]	MIC of meropenem in combination with compound, Klebsiella pneumoniae ATCC BAA-1705 KPC-2 [4] [µg/mL]	MIC of biapenem in combination with compound, Acinetobacter baumannii WX-AB005 [5] [µg/mL]	MIC of meropenem in combination with compound, Acinetobacter baumannii WX-AB005 [5] [µg/mL]	MIC of biapenem in combination with compound, Acinetobacter baumannii WX-AB013 [6] [µg/mL]	MIC of meropenem in combination with compound, Acinetobacter baumannii WX-AB013 [6] [µg/mL]	MIC of biapenem in combination with compound, Acinetobacter baumannii ARLG-1791 OXA-23 [7] [µg/mL]	MIC of meropenem in combination with compound, Acinetobacter baumannii ARLG-1791 OXA-23 [7] [µg/mL]	MIC of biapenem in combination with compound, Acinetobacter baumannii ARLG-1809 OXA-23 [8] [µg/mL]	MIC of meropenem in combination with compound, Acinetobacter baumannii ARLG-1809 OXA-23 [8] [µg/mL]	MIC of biapenem in combination with compound, Acinetobacter baumannii ARLG-1852 OXA-23 [9] [µg/mL]	MIC of meropenem in combination with compound, Acinetobacter baumannii ARLG-1852 OXA-23 [9] [µg/mL]	MIC of biapenem in combination with compound, Acinetobacter baumannii ARLG-1853 OXA-23 [10] [µg/mL]	MIC of meropenem in combination with compound, Acinetobacter baumannii ARLG-1853 OXA-23 [10] [µg/mL]
NC1COCC1Sc1ccc2c(c1C(=O)O)OB(O)C1CC21 (single isomer, unassigned) [Compound 10_P1]	≤0.125	1	0.25	2	≤0.125	≤0.125	≤0.125	≤0.125	2	4	0.5	2	0.5	4	1	2	0.25	1	0.5	2
NC1COCC1Sc1ccc2c(c1C(=O)O)OB(O)C1CC21 (single isomer, unassigned) [Compound 10_P2]	≤0.125	0.25	0.25	1	0.5	0.25	≤0.125	≤0.125	1	4	0.5	1	0.25	4	0.25	2	≤0.125	1	≤0.125	1
NC1COCC1Sc1ccc2c(c1C(=O)O)OB(O)C1CC21 (single isomer, unassigned) [Compound 11_P1]	0.25	≤0.125	0.25	0.5	0.25	≤0.125	≤0.125	≤0.125	1	4	0.5	2	0.25	2	0.5	2	0.25	1	≤0.125	2
NC1COCC1Sc1ccc2c(c1C(=O)O)OB(O)C1CC21 (single isomer, unassigned) [Compound 11_P2]	≤0.125	≤0.125	0.25	2	0.25	0.5	0.25	≤0.125	1	4	0.5	2	0.25	2	0.25	2	≤0.125	1	≤0.125	1

Continued, values first:

MIC of biapenem in combination with compound, Escherichia coli ARLG-2829 NDM-5, OXA-1 [1] [µg/mL]	MIC of meropenem in combination with compound, Escherichia coli ARLG-2829 NDM-5, OXA-1 [1] [µg/mL]	MIC of biapenem in combination with compound, Klebsiella pneumoniae ARLG-1196 CTM-1 group, SHV, NDM, TEM [2] [µg/mL]	MIC of meropenem in combination with compound, Klebsiella pneumoniae ARLG-1196 CTM-1 group, SHV, NDM, TEM [2] [µg/mL]	MIC of biapenem in combination with compound, Klebsiella pneumoniae ATCC BAA-2470 NDM-1 [3] [µg/mL]	MIC of meropenem in combination with compound, Klebsiella pneumoniae ATCC BAA-2470 NDM-1 [3] [µg/mL]	MIC of biapenem in combination with compound, Klebsiella pneumoniae ATCC BAA-1705 KPC-2 [4] [µg/mL]	MIC of meropenem in combination with compound, Klebsiella pneumoniae ATCC BAA-1705 KPC-2 [4] [µg/mL]	MIC of biapenem in combination with compound, Acinetobacter baumannii WX-AB005 [5] [µg/mL]	MIC of meropenem in combination with compound, Acinetobacter baumannii WX-AB005 [5] [µg/mL]	MIC of biapenem in combination with compound, Acinetobacter baumannii WX-AB013 [6] [µg/mL]	MIC of meropenem in combination with compound, Acinetobacter baumannii WX-AB013 [6] [µg/mL]	MIC of biapenem in combination with compound, Acinetobacter baumannii ARLG-1791 OXA-23 [7] [µg/mL]	MIC of meropenem in combination with compound, Acinetobacter baumannii ARLG-1791 OXA-23 [7] [µg/mL]	MIC of biapenem in combination with compound, Acinetobacter baumannii ARLG-1809 OXA-23 [8] [µg/mL]	MIC of meropenem in combination with compound, Acinetobacter baumannii ARLG-1809 OXA-23 [8] [µg/mL]	MIC of biapenem in combination with compound, Acinetobacter baumannii ARLG-1852 OXA-23 [9] [µg/mL]	MIC of meropenem in combination with compound, Acinetobacter baumannii ARLG-1852 OXA-23 [9] [µg/mL]	MIC of biapenem in combination with compound, Acinetobacter baumannii ARLG-1853 OXA-23 [10] [µg/mL]	MIC of meropenem in combination with compound, Acinetobacter baumannii ARLG-1853 OXA-23 [10] [µg/mL]	SMILES
1	16	1	2	0.25	8	≤0.125	≤0.125	4	8	2	4	2	8	2	8	1	4	1	16	O=C(O)c1c(SCCN2CCOCC2)ccc2c1OB(O)C1CC21 (single isomer, unassigned) [Compound 15-a]
0.25	1	≤0.125	≤0.125	≤0.125	1	≤0.125	≤0.125	2	4	1	4	0.5	4	1	2	0.25	2	0.25	4	O=C(O)c1c(SCCN2CCOCC2)ccc2c1OB(O)C1CC21 (single isomer, unassigned) [Compound 15-b]
